Source: patent publication US20230093073A1, “METHODS AND COMPOSITIONS FOR COMMUNITY-BASED SCREENING OF POLYMICROBIAL INFECTIONS” (REGENTS OF THE UNIVERSITY OF MINNESOTA, priority 2020, published 2023)

Assays:
P. aeruginosa = experiment: Antibiotic susceptibility testing (MIC) of P. aeruginosa isolates from CF sputum in LB; assay type: cell-based, Pseudomonas aeruginosa; conditions: isolates from adult CF sputum, nutrient-rich LB, aerobic, 37° C., 24 h
Experimental: (§1) To further test this idea under clinically relevant conditions, sputum was collected from adult CF patients and isolated P. aeruginosa from each sample (FIG. 1B). Using a panel of widely used CF antibiotics (tobramycin, aztreonam, levofloxacin, piperacillin-tazobactam) and others lacking conventional activity against P. aeruginosa (trimethoprim-sulfamethoxazole, metronidazole), MICs for each isolate were determined under nutrient-rich conditions (akin to standard AST procedures). Concurrently, enrichment culturing was performed to isolate anaerobic mucin-degrading bacteria from each sample (10) and antibiotic MICs were similarly determined. Finally, small aliquots of remaining sputa were diluted in buffer and split between culture tubes containing mucin as the sole carbon source, 1% agarose, and one of the antibiotics listed above. Using these cultures in which P. aeruginosa and anaerobic mucin-degraders were co-dependent on mucin utilization, how co-operative growth affected antibiotic sensitivity relative to independent culture was interrogated.
Pseudomonas aeruginosa isolation. 100 μL of sputum was streaked onto Pseudomonas isolation agar and incubated at 37° C. for 72 hours. A single isolate from each sample was screened by PCR to confirm identity and stored in 30% glycerol at −80° C.
Antibiotic susceptibility testing. For anaerobic AST, 5 μL of enrichment culture was added to each well of microtiter plate containing MMM supplemented with gradients of seven antibiotics (aztreonam 0-500 μg/mL; doxycycline, 0-25 μg/mL; levofloxacin, 0-25 μg/mL; metronidazole, 0-25 μg/mL; piperacillin/tazobactam, 0-25 μg/mL; tobramycin, 0-500 μg/mL; trimethoprim/sulfamethoxazole, 0-25 μg/mL). Plates were wrapped in parafilm and incubated anaerobically at 37° C. for 72 h. For P. aeruginosa, isolates were grown in lysogeny broth (LB) to an OD600 of 0.5. 5 μL was then added to a similar plate containing LB as the base medium and incubated aerobically at 37° C. for 24 h. Plates were resuspended by pipetting and read spectrophotometrically at OD600 using a BioTek Synergy plate reader. MICs were determined based on the antibiotic concentration required to achieve a 90% reduction in culture density relative to antibiotic-free controls.

[1] = tested on: anaerobic mucin-degrading bacteria; experiment: Anaerobic antibiotic susceptibility testing (MIC) of enrichment cultures from CF sputum in minimal mucin medium; assay type: cell-based; conditions: MMM, 37° C., 72 h
Experimental: as §1
Anaerobic enrichment. […]
Antibiotic susceptibility testing. […] Plates were resuspended by pipetting and read spectrophotometrically at OD600 using a BioTek Synergy plate reader. MICs were determined based on the antibiotic concentration required to achieve a 90% reduction in culture density relative to antibiotic-free controls.

[2] = tested on: sputum bacterial communities; experiment: Mucin co-culture of CF sputum bacterial communities, community growth by 16S rRNA gene qPCR; assay type: cell-based; conditions: for whether presence of at least one antibiotic-susceptible population predicts community failure in co-culture: sputum co-culture vs individual MICs of P. aeruginosa and anaerobes; for effect on co-operative community growth (16S rRNA gene copies relative to untreated control, FIG. 2C): sputum co-culture, mucin sole carbon source, 1% agarose, 72 h, one fixed concentration per antibiotic
Experimental: as §1
It was assessed whether co-operative community growth (see FIG. 1A) would affect antibiotic susceptibility. Specifically, we hypothesized that the sensitivity of the overall sputum bacterial community would be set by the least tolerant among P. aeruginosa and anaerobic subpopulations. To test this hypothesis, total 16S rRNA gene copy number was used to quantify community growth in response to each antibiotic relative to untreated controls (FIG. 2C).
Co-culture. Under anaerobic conditions, 200 μL of homogenized sputum was placed into one of eight tubes to which a pre-determined concentration of each antibiotic was added (aztreonam, 100 μg/mL; doxycycline, 6.5 μg/mL; levofloxacin, 6.5 μg/mL; metronidazole, 3.5 μg/mL; piperacillin/tazobactam, 6.5 μg/mL; tobramycin, 500 μg/mL; trimethoprim/sulfamethoxazole, 3.5 μg/mL). […] 200 μL of molten 2% low melting point agarose in PBS was added to each tube and homogenized by pipetting. Each mixture was then added to 0.5 mL Pyrex culture tubes forming a gel upon cooling. Upon removal from the anaerobic chamber, tubes were incubated at 37° C. for 72 h and frozen at −80° C.
DNA extraction. Agar plugs were removed from the culture tubes, transferred to a Matrix E Lysing Tubes (MP Biomedicals) and two volumes of lysis buffer were added. Tubes were vortexed on a bead beater for 2×30 s, followed by centrifugation at 9,500×g for 1 min. Supernatant was transferred to a new tube, incubated at 75° C. for 10 min and returned to room temperature. Lysozyme and RNAse A were then added to final concentrations of 0.2 mg/mL and 50 μg/mL, respectively, and incubated for 1 h at 37° C. […], of 10% SDS and proteinase K (2 mg/mL) were added and incubated overnight at 55° C.
DNA was extracted by adding one volume of phenol:chloroform:iosoamyl alcohol (25:24:1) and vortexing to emulsify. Samples were centrifuged at 21,000×g for 20 min and the upper aqueous layer transferred to a new tube. One volume of chloroform:IAA was then added followed by centrifugation at 21,000×g for 15 min. The upper layer was transferred to a new tube. 3M sodium acetate (pH 5.2) was added and mixed gently, followed by the addition of 1 volume of isopropanol and 3 μL GlycoBlue. Samples were centrifuged for 20 min at 21,000×g and supernatant removed. Pellets were washed using 80% ethanol, air dried for ˜30 min and resuspended in 10 mM Tris (pH 8) prior to storage at −80° C.
qPCR. Community growth was estimated by quantifying 16S rRNA gene copies from co-culture DNA.

[3] = tested on: P. aeruginosa and anaerobic bacteria capable of degrading mucins; conditions: cited from earlier work

Compound	efficacy against P. aeruginosa isolates (MICs, FIG. 2A) (P. aeruginosa)	efficacy against anaerobic enrichments (MICs, FIG. 2B) [1]	whether presence of at least one antibiotic-susceptible population predicts community failure in co-culture [2]	effect on co-operative community growth (16S rRNA gene copies relative to untreated control, FIG. 2C) [2]	further results
C[C@H]1[C@H](NC(=O)/C(=N\OC(C)(C)C(=O)O)c2csc(N)n2)C(=O)N1S(=O)(=O)O [aztreonam]	some isolates were resistant	variable efficacy	largely predictive of community failure		growth of two aztreonam-resistant P. aeruginosa isolates in co-culture ([2]; co-culture with aztreonam-susceptible anaerobic mutualists, aztreonam 100 μg/mL): restricted in co-culture
Cc1ncc([N+](=O)[O-])n1CCO [metronidazole]	ineffective			striking effect on co-operative cultures	sputum community growth, patient 5 ([2]; patient 5, both subpopulations independently resistant, metronidazole 3.5 μg/mL): robust
NC[C@H]1O[C@H](O[C@H]2[C@H](O)[C@@H](O[C@H]3O[C@H](CO)[C@@H](O)[C@H](N)[C@H]3O)[C@H](N)C[C@@H]2N)[C@H](N)C[C@@H]1O [tobramycin]	broadly effective	all anaerobic enrichments demonstrated resistance		striking effect on co-operative cultures	
CC1(C)S[C@@H]2[C@H](NC(=O)[C@H](N)c3ccccc3)C(=O)N2[C@H]1C(=O)O [ampicillin]					P. aeruginosa growth in co-culture with mucin-degrading anaerobes ([3]; co-culture on mucins as sole carbon source, inhibition of anaerobic subpopulation): constrained P. aeruginosa growth; resistance of P. aeruginosa determined by standard AST ([3]; standard AST, monoculture): high intrinsic resistance
piperacillin-tazobactam	some isolates were resistant		largely predictive of community failure		
trimethoprim-sulfamethoxazole	some isolates were resistant		largely predictive of community failure	variable effects	community growth, patients 3 and 4 ([2]; patients 3 and 4, antibiotic predicted ineffective from individual MICs, T/S 3.5 μg/mL): surprisingly inhibited
